Columns and labels:
P2Y12 receptor (P2Y12R) [1] = molecular target: T1, P2Y12 receptor (P2Y12R) (Homo sapiens, UniProt Q9H244); assay: inhibition of forskolin-induced cAMP formation; type: cell-based
P2Y12 receptor (P2Y12R) [2] = molecular target: T1, P2Y12 receptor (P2Y12R); assay: cAMP accumulation assay, rightward shift of 2-methylthio-ADP curve; type: cell-based

T1 sequence (Q9H244 whole entry): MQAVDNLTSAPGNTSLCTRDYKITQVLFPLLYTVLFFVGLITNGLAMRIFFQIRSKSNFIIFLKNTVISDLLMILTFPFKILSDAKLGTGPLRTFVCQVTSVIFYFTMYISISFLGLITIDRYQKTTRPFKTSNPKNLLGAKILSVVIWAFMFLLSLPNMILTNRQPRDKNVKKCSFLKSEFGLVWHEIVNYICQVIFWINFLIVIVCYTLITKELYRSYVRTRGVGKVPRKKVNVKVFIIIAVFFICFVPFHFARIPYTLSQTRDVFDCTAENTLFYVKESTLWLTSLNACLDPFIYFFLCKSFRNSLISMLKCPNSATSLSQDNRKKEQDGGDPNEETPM

SMILES: CSc1nc(N)c2ncn([C@@H]3O[C@H](COP(=O)(O)OP(=O)(O)O)[C@@H](O)[C@H]3O)c2n1 [2-methylthio-ADP]
- EC50 (P2Y12 receptor (P2Y12R) [1]): 0.26 nM

SMILES: Nc1c(S(=O)(=O)O)cc(Nc2ccc(Nc3ccccc3)c(S(=O)(=O)O)c2)c2c1C(=O)c1ccccc1C2=O [PSB-0739]
- Kb (P2Y12 receptor (P2Y12R) [2]): 0.0794 nM

From paper PMC4148180 (Neurobiology of Disease, 2014)
